Measurements: US20110230659A1, “CYCLOBUTYL PURINE DERIVATIVE, ANGIOGENESIS PROMOTING AGENT, LUMEN FORMATION PROMOTING AGENT, NEUROCYTE GROWTH PROMOTING AGENT, AND DRUG” (NATIONAL UNIVERSITY CORPORATION KAGAWA UNIVERSITY, priority 2008, published 2011)

Columns and labels:
JNK = JNK activation (phosphorylation) immunoblot in HUVEC; assay type: cell-based, human; settings: 100 μmol/l; 0 to 60 minutes
Protocol: (§1) First, to a HuMedia-EB2 medium (Kurabo) to which 2 v/v % inactivated fetal bovine serum (FBS) had been added, 2-Cl—C.OXT-A was added so that its concentration became 100 μmol/l. Thus, a medium was prepared. Using the medium, human umbilical vein endothelial cells (HUVEC) were cultured for predetermined periods (0, 10, 20, 30, 45, and 60 minutes).
(§2) After the culture, cells were collected. The collected cells were lysed by adding a cell lysis buffer (SDS-lysis buffer) thereto, and heat-denatured at 95° C. for 5 minutes. The solubilized protein in an amount corresponding to 5 v/v % of the heat-denatured cell lysate was subjected to electrophoresis using 10% SDS-polyacrylamide gel, whereby the solubilized protein was transferred onto a nitrocellulose membrane (Amersham Biosciences). […]
(§3) The enzymes were visualized with SuperSignal (registered trademark) West Pico Chemiluminescent Substrate (Pierce), and detected by being exposed to RX—U X-ray film (FUJIFILM Corporation). From the detected bands, the respective phosphoenzymes and total enzymes were quantified using an NIH image software. Furthermore, the relative value (−fold) of each phosphoenzyme was calculated by substituting the measured value of the phosphoenzyme into the following equation (III).

Akt = Akt activation (phosphorylation) immunoblot in HUVEC; assay type: cell-based, human; settings: 100 μmol/l; 0 to 60 minutes
Protocol: as §1, §2, §3

p38 = p38 activation (phosphorylation) immunoblot in HUVEC; assay type: cell-based, human; settings: 100 μmol/l; 0 to 60 minutes
Protocol: as §1, §2, §3

[1] = tested on: human umbilical vein endothelial cells (HUVEC) and normal human dermal fibroblasts; test: Measurement of lumen formation (angiogenesis kit, CD31 immunostaining, lumen area); assay type: cell-based
Protocol: The measurement of lumen formation was carried out in the following manner using commercially available angiogenesis kits (Kurabo), each including human umbilical vein endothelial cells (HUVEC) and normal human dermal fibroblasts. First, sample solutions were prepared by dissolving 2-Cl—C.OXT-A in physiological saline so as to achieve predetermined concentrations (1, 10, 100, 500 μmol/l, 1, 5, 10, 50 mmol/l). Then, the sample solutions containing 2-Cl—C.OXT-A at the predetermined concentrations respectively were added to media provided in the kits so that their concentrations became 10 v/v %. Thus, lumen formation media were prepared. The final concentrations of 2-Cl—C.OXT-A in the lumen formation media were 0.1, 1, 10, 50, 100, 500 μmol/l, 1 and 5 mmol/1.
Using each of the lumen formation media, the human umbilical vein endothelial cells (HUVEC) and the normal human dermal fibroblasts were cultured for 10 days. After the culture, the human umbilical vein endothelial cells (HUVEC) were immunostained using a lumen staining kit (for CD31 staining, Kurabo). Then, using NIH Image (image processing and analysis software), the area of a portion stained by the immunostaining (lumen area) was measured. As a control, a medium provided in the kit was used instead of the lumen formation medium to carry out the culture, and the cells were immunostained and the lumen area was measured in the same manner as in the above. Then, using the following equation (II), the relative value of lumen area in the culture using each of the lumen formation media containing 2-Cl—C.OXT-A at the predetermined concentrations was calculated.
In the present example, the relative value of lumen area was calculated in the same manner as in the lumen formation measurement in Example 1, except that the measurement was carried out with respect to four groups respectively using media Nos. 5 to 8 prepared by adding 2-Cl—C.OXT-A and PD98059 to media provided in the above-described angiogenesis kits (Kurabo) so that their concentrations became as shown in Table 2 below. In the group using the medium No. 7, the culture was conducted using the medium No. 7 from the first to third days of the culture and the medium No. 5 from the fourth to tenth days of the culture, and in the group using the medium No. 8, the culture was conducted using the medium No. 8 from the first to third days of the culture and the medium No. 6 from the fourth to tenth days of the culture.
In the present example, the relative value of lumen area was calculated in the same manner as in the lumen formation measurement in Example 1, except that the measurement was carried out with respect to six groups respectively using media Nos. 15 to 20 prepared by adding 2-Cl—C.OXT-A, VEGF (positive control), and SU5416 to media provided in the above-described angiogenesis kit (Kurabo) so that their concentrations became as shown in Table 4 below. In the group using the medium No. 16, the culture was conducted using the medium No. 16 from the first to third days of the culture and the medium No. 15 from the fourth to tenth days of the culture; in the group using the medium No. 18, the culture was conducted using the medium No. 18 from the first to third days of the culture and the medium No. 17 from the fourth to tenth days of the culture; and in the group using the medium No. 20, the culture was conducted using the medium No. 20 from the first to third days of the culture and the medium No. 19 from the fourth to tenth days of the culture.

ERK = ERK activation (phosphorylation) immunoblot in HUVEC; assay type: cell-based, human; settings: Example 8, medium No. 11: 2-Cl—C.OXT-A 100 μmol/l

## Nc1nc(Cl)nc2c1ncn2C1CC(CO)C1CO (stereo not drawn) [2-Cl—C.OXT-A, 6-amino-2-chloro-9-[trans-trans-2,3-bis(hydroxymethyl)cyclobutyl]purine]
JNK
  amount of pJNK: not changed
Akt
  amount of pAkt: not changed
p38
  amount of pp 38: not changed
[1]; Example 7, medium No. 6: only 2-Cl—C.OXT-A 10 μmol/l
  relative value of lumen area compared with control: about 3 fold
[1]; Example 9, medium No. 17: 2-Cl—C.OXT-A 10 μmol/l
  lumen area: increased markedly
[1]; final concentration 100 nmol/l to 1 mmol/l, versus control
  relative value of lumen area: larger than that of the control
[1]; final concentration 10 μmol/l to 1 mmol/l, 10 days, versus control
  stained area (lumen formation, immunostaining photographs): larger than that in the control
[1]; final concentration 100 μmol/l, highest activity
  relative value of lumen area: 3.8
[1]; final concentration 10 to 500 μmol/l, VEGF 10 ng/ml
  lumen formation promoting-activity compared with VEGF (relative value of lumen area): higher than that in Comparative Example 7
[1]; final concentrations 10 and 100 μmol/l, VEGF 10 ng/ml
  lumen formation promoting-activity compared with VEGF (photographs): higher than that in Comparative Example 7
ERK
  pERK: increased
